Here are results for one compound from patent US8740843B2, “Coated balloon catheter” (Cook Medical Technologies LLC, priority 2009, dated 2014).

Some results are limits rather than exact numbers.

This series can be described thus: Elution of paclitaxel from coated balloon catheter assemblies in porcine serum elution medium (HPLC). It counts as physicochemical. The following applies: contrast media vs saline. How it is done: The rate of paclitaxel elution in each of the paclitaxel-coated balloon catheter assemblies described in Example 1 is analyzed in a porcine serum at 37° C. The coated balloon catheter assemblies are then divided into two groups, A and B. The coated balloon catheter assembly in Group A is designated to deliver a saline solution through the apertures of the outer balloon, while the coated balloon catheter assembly in Group B is designated to deliver a contrast media through the apertures of the outer balloon. The contrast media used is ISOVUE®-370 of Bracco Diagnostics (Princeton, N.J.), which included 370 mgl/mL of Iopamidol.
The coated balloon catheter assemblies, expanded to 4 ATM, is contacted with the porcine serum elution medium and continuously stirred for a desired period of time (e.g., at least one hour) selected to gradually dissolve the paclitaxel at a rate similar to dissolution in blood. […] The amount of the paclitaxel dissolved is measured as a function of time by monitoring with High Performance Liquid Chromatography (HPLC) the porcine serum elution medium after contact with the coated balloon catheter assembly. […] The outer balloon of each of the coated balloon catheter assemblies is then detached from the assembly and analyzed using HPCL to measure the amount of paclitaxel left on the coated outer balloon after being in contact with the elution medium for 60 minutes.

Consider `CC(=O)O[C@H]1C(=O)[C@@]2(C)[C@H]([C@H](OC(=O)c3ccccc3)[C@]3(O)C[C@H](OC(=O)[C@H](O)[C@@H](NC(=O)c4ccccc4)c4ccccc4)C(C)=C1C3(C)C)[C@]1(OC(C)=O)CO[C@@H]1C[C@@H]2O` [paclitaxel], for which the “lower amount of PTX on the outer balloon than Group A balloon catheters” value (after 60 minutes) was not above 15%. In addition, where the note is “time period of 2 to 10 minutes”, the “PTX elutes faster than Group A balloon catheters” value is on record as 2-3 times.
